The test system of assay [1] is AP-1 induced transcriptional activity. Nature of the assay: Cellular Transrepressional Assay (AP-1 luciferase reporter in A549 cells, PMA-activated). Format: cell-based. Particulars: Homo sapiens, A549, 7 h, A549 cells with 7x AP-1 luciferase reporter, 10 ng/ml PMA, read-out: AP-1 (EC50, nM) (Cellular Transrepression Assay). As for the experimental part: To measure the ability of test molecules to inhibit AP-1 induced transcriptional activity an A549 cell was utilized which was stably transfected with a plasmid containing 7× AP-1 DNA binding sites (pAP-1-Luc plasmid, Stratagene Co. La Jolla, Calif.) followed by the gene for luciferase. Cells were activated with 10 ng/ml of […] (PMA) plus or minus test molecules for 7 hours. After 7 hours a luciferase reagent was added to measure luciferase enzymatic activity in the cell. After a 10 minute incubation of luciferase reagent with cells, luminescence was measured in a TopCount luminescence counter. Repression of AP-1 activity was calculated as the percentage decrease in the signal induced by PMA alone. Test molecules were analyzed in the concentration range from 0.1 nM to 40 μM. EC50s were determined by using standard curve fitting methods such as Excel fit (Microsoft Co.).
A general note: A reporter such as luciferase makes a cellular process visible.

The target in assay [2] is T1, human glucocorticoid receptor (Homo sapiens, UniProt P04150).
T1 construct: purified human recombinant full-length glucocorticoid receptor (2 nM); purchased Invitrogen Part #2893
T1 sequence (P04150 1-777): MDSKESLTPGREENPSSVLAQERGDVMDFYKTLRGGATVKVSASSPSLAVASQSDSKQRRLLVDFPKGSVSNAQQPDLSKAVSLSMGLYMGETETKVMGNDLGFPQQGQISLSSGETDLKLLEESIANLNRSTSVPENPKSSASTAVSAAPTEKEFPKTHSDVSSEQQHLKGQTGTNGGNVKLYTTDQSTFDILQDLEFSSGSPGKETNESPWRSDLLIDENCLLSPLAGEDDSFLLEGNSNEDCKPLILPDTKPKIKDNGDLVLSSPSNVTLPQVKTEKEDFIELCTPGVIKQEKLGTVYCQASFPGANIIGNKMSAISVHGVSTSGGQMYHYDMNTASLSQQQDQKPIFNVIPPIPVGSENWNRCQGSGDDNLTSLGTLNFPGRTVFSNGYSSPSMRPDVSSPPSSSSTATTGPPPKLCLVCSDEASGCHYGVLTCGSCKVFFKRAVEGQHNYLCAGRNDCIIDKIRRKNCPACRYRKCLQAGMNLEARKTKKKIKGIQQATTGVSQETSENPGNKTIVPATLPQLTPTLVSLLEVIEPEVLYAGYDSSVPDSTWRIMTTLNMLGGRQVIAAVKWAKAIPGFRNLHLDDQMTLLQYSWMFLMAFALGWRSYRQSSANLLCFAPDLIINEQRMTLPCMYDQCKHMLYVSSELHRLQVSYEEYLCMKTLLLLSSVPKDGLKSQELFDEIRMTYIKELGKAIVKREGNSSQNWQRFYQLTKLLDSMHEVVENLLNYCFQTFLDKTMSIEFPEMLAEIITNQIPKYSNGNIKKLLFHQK
In words: Glucocorticoid Receptor Binding Assay (I), fluorescence polarization competitor kit (Fluormone GS Red). The conditions noted are these: purified human recombinant full-length GR 2 nM, 1 nM Fluormone GS Red, FP; read-out: GR (Ki, nM) (GR Binding Assay (I)). As for the experimental part: Briefly, purified human recombinant full-length glucocorticoid receptor (2 nM) was mixed with fluorescently labeled glucocorticoid (1 nM Fluormone GS Red) in the presence or absence of test compound. After two hour incubation at room temperature in the dark, the fluorescence polarization (FP) of the samples was measured. […] Test compounds were analyzed in the concentration range from 8.5E-05 μM to 5 μM.
In general terms: Polarisation of emitted light reports the rotation of a fluorescent probe.

Molecules are shown by their SMILES. Where only a bound is given, the exact number is not on record here.

As usually defined, the EC50 is the concentration that produces a half-maximal response. The Ki is the equilibrium dissociation constant of an inhibitor or competing ligand from its target. For `CC(C)(C(=O)Nc1nnc(C2CC2)s1)C(c1ccccc1)c1ccc2c(cnn2-c2ccc(F)cc2)c1` (centres unmarked) [Example 21, N-(5-cyclopropyl-1,3,4-thiadiazol-2-yl)-3-(1-(4-fluorophenyl)-1H-indazole-5-yl)-2,2-dimethyl-3-phenylpropanamide], in assay [1], the EC50 was determined as 155 nM. Besides, in assay [2], the Ki was 12 nM.

Turning to `CSc1nnc(NC(=O)C(C)(C)C(c2ccccc2)c2ccc3c(cnn3-c3ccc(F)cc3)c2)s1` (centres unmarked) [Example 22, 3-(1-(4-fluorophenyl)-1H-indazol-5-yl)-2,2-dimethyl-N-(5-(methylthio)-1,3,4-thiadiazol-2-yl)-3-phenylpropanamide], the EC50 in assay [1] was determined as 840 nM. Also, the Ki in assay [2] was 29 nM.

As for `CC(C)(C(=O)Nc1nc2ccccc2s1)C(c1ccccc1)c1ccc2c(cnn2-c2ccc(F)cc2)c1` (centres unmarked) [Example 23, N-(benzyl[d]thiazol-2-yl)-3-(1-(4-fluorophenyl)-1H-indazol-5-yl)-2,2-dimethyl-3-phenylpropanamide], in assay [1], the concentration giving a half-maximal response (EC50) was greater than 10000 nM. In addition, the inhibition constant (Ki) in assay [2] amounted to 60 nM.

Regarding `Cc1nc(NC(=O)C(C)(C)C(c2ccccc2)c2ccc3c(cnn3-c3ccc(F)cc3)c2)sc1C` (centres unmarked) [Example 24, N-(4,5-dimethylthiazol-2-yl)-3-(1-(4-fluorophenyl)-1H-indazol-5-yl)-2,2-dimethyl-3-phenylpropanamide], in assay [1], the EC50 was greater than 10000 nM. Further, the inhibition constant Ki in assay [2] stood at 28 nM.

As to `CC(C)(C(=O)Nc1nnc(C(F)(F)F)s1)C(c1ccccc1)c1ccc2c(cnn2-c2ccc(F)cc2)c1` (centres unmarked) [Example 25, 3-(1-(4-fluorophenyl)-1H-indazol-5-yl)-2,2-dimethyl-3-phenyl-N-(5-(trifluoromethyl)-1,3,4-thiadiazol-2-yl)propanamide], the concentration giving a half-maximal response (EC50) in assay [1] was greater than 10000 nM. Besides, the inhibition constant Ki in assay [2] turned out to be 19 nM.

Regarding `CC(C)(C(=O)Nc1ncc(Cl)s1)C(c1ccccc1)c1ccc2c(cnn2-c2ccc(F)cc2)c1` (centres unmarked) [Example 26, N-(5-chlorothiazol-2-yl)-3-(1-(4-fluorophenyl)-1H-indazol-5-yl)-2,2-dimethyl-3-phenylpropanamide], the half-maximal effective concentration (EC50) in assay [1] was found to be 404 nM. In assay [2], the Ki is 16 nM.

As to `CCOC(=O)c1csc(NC(=O)C(C)(C)C(c2ccccc2)c2ccc3c(cnn3-c3ccc(F)cc3)c2)n1` (centres unmarked) [Example 27, ethyl 2-(3-(1-(4-fluorophenyl)-1H-indazol-5-yl)-2,2-dimethyl-3-phenylpropanamido)thiazol-4-carboxylate], the EC50 in assay [1] is 1310 nM. In assay [2], the Ki is 23 nM.

Turning to `CCOC(=O)Cc1csc(NC(=O)C(C)(C)C(c2ccccc2)c2ccc3c(cnn3-c3ccc(F)cc3)c2)n1` (centres unmarked) [Example 28, ethyl 2-(2-(3-(1-(4-fluorophenyl)-1H-indazol-5-yl)-2,2-dimethyl-3-phenylpropanamido)thiazol-4-yl)acetate], the EC50 in assay [1] was 647 nM. Further, the inhibition constant (Ki) in assay [2] was 20 nM.

Consider `CC(C)(C(=O)Nc1nccs1)C(c1ccccc1)c1ccc2[nH]ncc2c1` (centres unmarked) [Example 29, 3-(1H-Indazol-5-yl)-2,2-dimethyl-3-phenyl-N-(thiazol-2-yl)propanamide], for which the half-maximal effective concentration (EC50) in assay [1] turned out to be 126 nM. Also, the Ki in assay [2] came to 7.8 nM.

As for `CC(C)(Cc1ccc2c(cnn2-c2ccc(F)cc2)c1)C(=O)Nc1nccs1` [Example 31, 3-(1-(4-Fluorophenyl)-1H-indazol-5-yl)-2,2-dimethyl-N-(thiazol-2-yl)propanamide], the 50% effective concentration (EC50) in assay [1] is greater than 10000 nM. Further, the inhibition constant Ki in assay [2] came out at 98 nM.

Regarding `CC(C)(Cc1ccc2c(cnn2-c2ccc(F)cc2)c1)C(=O)Nc1nncs1` [Example 32, 3-(1-(4-Fluorophenyl)-1H-indazol-5-yl)-2,2-dimethyl-N-(1,3,4-thiadiazol-2-yl)propanamide], the EC50 in assay [1] came out at 4320 nM. For the same molecule, the inhibition constant Ki in assay [2] stood at 84 nM.

Consider `CC(C)(C(=O)Nc1nccs1)C(c1ccc2c(cnn2-c2ccc(F)cc2)c1)C1CCCC1` (centres unmarked) [Example 35, 3-Cyclopentyl-3-(1-(4-fluorophenyl)-1H-indazol-5-yl)-2,2-dimethyl-N-(thiazol-2-yl)propanamide], for which, in assay [1], the EC50 was 82 nM. Further, the Ki in assay [2] is 21 nM.

Consider `CC(C)(C(=O)Nc1nccs1)C(c1cc[n+]([O-])cc1)c1ccc2c(cnn2-c2ccc(F)cc2)c1` (centres unmarked) [Example 37, 3-(1-(4-Fluorophenyl)-1H-indazol-5-yl)-2,2-dimethyl-3-(pyridin-4-N-oxide-yl)-N-(thiazol-2-yl)propanamide], for which the EC50 in assay [1] turned out to be 3350 nM. The Ki in assay [2] came to 301 nM.

Take `CCC(c1ccc2c(cnn2-c2ccc(F)cc2)c1)C(C)(C)C(=O)Nc1nccs1` (centres unmarked) [Example 39, 3-(1-(4-Fluorophenyl)-1H-indazol-5-yl)-2,2-dimethyl-N-(thiazol-2-yl)pentanamide]: the concentration for a half-maximal effect (EC50) in assay [1] amounted to 87 nM. The inhibitory constant (Ki) in assay [2] came to 9.8 nM.

As to `CC(C)(C(=O)Nc1nccs1)C(c1ccccc1)c1ccc2c(cnn2CCO)c1` (centres unmarked) [Example 57, 3-(1-(2-hydrox-ethyl)-1H-indazol-5-yl)-2,2-dimethyl-3-phenyl-N-(thiazol-2-yl)propanamide], the concentration for a half-maximal effect (EC50) in assay [1] was found to be 205 nM. Besides, the inhibition constant Ki in assay [2] is 20 nM.

In the case of `CC(C)(C(=O)Nc1nccs1)C(c1ccccc1)c1ccc2c(cnn2C2CCOCC2)c1` (centres unmarked) [Example 58, 2,2-dimethyl-3-phenyl-3-(1-(tetrahydro-2H-pyran-4-yl)-1H-indazol-5-yl)-N-(thiazol-2-yl)propanamide], in assay [1], the EC50 was 177 nM. The Ki in assay [2] was 10 nM.

On to `CN1CCC(n2ncc3cc(C(c4ccccc4)C(C)(C)C(=O)Nc4nccs4)ccc32)CC1` (centres unmarked) [Example 59, 2,2-dimethyl-3-(1-(1-methylpiper-idin-4-yl)-1H-indazol-5-yl)-3-phenyl-N-(thiazol-2-yl)propanamide], for which the EC50 in assay [1] is greater than 10000 nM. The inhibition constant Ki in assay [2] was 543 nM.

`CC(C)(C(=O)Nc1nccs1)C(c1ccccc1)c1ccc2c(cnn2CS(C)(=O)=O)c1` (centres unmarked) [Example 60, 2,2-dimethyl-3-(1-(methylsulfonylmethyl)-1H-indazol-5-yl)-3-phenyl-N-(thiazol-2-yl)propanamide]: the EC50 in assay [1] was greater than 10000 nM. Besides, the Ki in assay [2] amounted to 29 nM.

`CC(C)n1ncc2cc(C(c3ccccc3)C(C)(C)C(=O)Nc3nccs3)ccc21` (centres unmarked) [Example 61, 3-(1-isopropyl-1H-indazol-5-yl)-2,2-dimethyl-3-phenyl-N-(thiazol-2-yl)propanamide]: the EC50 in assay [1] turned out to be 158 nM. Besides, in assay [2], the inhibition constant Ki amounted to 14 nM.

On to `CC(C)n1cc2cc(C(c3ccccc3)C(C)(C)C(=O)Nc3nccs3)ccc2n1` (centres unmarked) [Example 62], for which the EC50 in assay [1] was found to be 6150 nM. Also, in assay [2], the inhibition constant (Ki) came out at 9 nM.

For `CC(C)(C(=O)Nc1nncs1)C(c1ccccc1)c1ccc2c(cnn2CS(C)(=O)=O)c1` (centres unmarked) [Example 64, 2,2-dimethyl-3-(1-(methylsulfonylmethyl)-1H-indazol-5-yl)-3-phenyl-N-(1,3,4-thiadiazol-2-yl)propanamide], in assay [1], the EC50 was greater than 10000 nM. Besides, the Ki in assay [2] was 65 nM.

As for `CC(C)(C(=O)Nc1nncs1)C(c1ccccc1)c1ccc2c(cnn2CCO)c1` (centres unmarked) [Example 65, 3-(1-(2-hydroxyethyl)-1H-indazol-5-yl)-2,2-dimethyl-3-phenyl-N-(1,3,4-thiadiazol-2-yl)propanamide], in assay [1], the concentration for a half-maximal effect (EC50) is 550 nM. Moreover, the Ki in assay [2] worked out at 47 nM.

As for `CC(C)CCn1cc2cc(C(c3ccccc3)C(C)(C)C(=O)Nc3nncs3)ccc2n1` (centres unmarked) [Example 67, 3-(2-isopentyl-2H-indazol-5-yl)-2,2-dimethyl-3-phenyl-N-(1,3,4-thiadiazol-2-yl)propanamide], the EC50 in assay [1] came to 532 nM. Besides, the Ki in assay [2] turned out to be 25 nM.

For the molecule `COCCCn1cc2cc(C(c3ccccc3)C(C)(C)C(=O)Nc3nncs3)ccc2n1` (centres unmarked) [Example 69, 3-(2-(3-methoxy-propyl)-2H-indazol-5-yl)-2,2-dimethyl-3-phenyl-N-(1,3,4-thiadiazol-2-yl)propanamide], in assay [1], the concentration for a half-maximal effect (EC50) was greater than 10000 nM. In addition, the inhibitory constant (Ki) in assay [2] was found to be 84 nM.

On to `CC(C)Cn1ncc2cc(C(c3ccccc3)C(C)(C)C(=O)Nc3nncs3)ccc21` (centres unmarked) [Example 70, 3-(1-isobutyl-1H-indazol-5-yl)-2,2-dimethyl-3-phenyl-N-(1,3,4-thiadiazol-2-yl)propanamide], for which, in assay [1], the 50% effective concentration (EC50) was determined as 1020 nM. Moreover, in assay [2], the Ki came out at 19 nM.

For the origin of these results see patent US8067447B2, “Modulators of glucocorticoid receptor, AP-1, and/or NF-κB activity and use thereof” (Bristol-Myers Squibb Company, priority 2006, dated 2011).
